Measured values taken from patent publication US6653346B1, “Cytoprotective benzofuran derivatives” (Galileo Pharmaceuticals, Inc., priority 2002, dated 2003).

System: CRP in Hep3B cells
Assay: Human Hep3B cells - CRP assay (CRP ELISA)
Assay type: cell-based
Details: 72 h, Hep3B cells stimulated with IL-1β, IL-6 and dexamethasone, three days, read-out: EC50 for reducing CRP levels
Source text: Hep3B Cell Line is obtained from the American Type Culture Collection (ATCC Catalog No. HB-8064). The Hep3B cell line was derived from liver tissue of […]. The cells are epithelial in morphology and produce tumors in nude mice. The cells produce α-fetoprotein, hepatitis B surface antigen, albumin, α-2-macroglobulin, α-1-antitrypsin, transferrin, plasminogen, complement C3 and β-lipoprotein (Knowles BB, et al., Science, 1980, 209:497-499). This cell line has been widely used to study hepatocyte cytokine and acute phase protein release (e.g., Damtew B, et al.,1993, J Immunol 150:4001-4007).
HEP3B cells are grown in Minimum Essential Medium (MEM; GIBCO) supplemented with 10% Fetal Bovine Serum (FBS; Hyclone), 1×Penicillin/Streptomycin (GIBCO, Cat #15140-122) and 0.1 mM non-essential amino acids (GIBCO, Catalog No. 11140-050). Cells are thawed and transferred to warm medium according to standard methods known in the art.
Cells are incubated in flasks at 37° C. with 5% CO2 in an air atmosphere incubator. HEP3B growth media is changed every 2 days until the cells reach 70-80% confluence (approx. 3-4 days). For assay, the cells are transferred to 96-well plates, seeded at 5000 cells per well in culture media, and left to grow for 7 days in a 37° C. incubator (air supplemented with 5% CO2). Media is replaced daily until assay. Test compounds are diluted into “Stimulus Buffer” (MEM medium containing 0.1 mM non-essential amino acids, 1×penicillin/streptomycin, 10% FBS with 10 ng/ml IL-1β, 20 ng/ml IL-6 and 1 μM dexamethasone. Media is removed from the cells and is replaced with 200 μl of test dilution. Cells are returned to the incubator for three days at 37° C. CRP ELISA is then performed on supernatant from the cells, as described below.
Costar EIA/RIA plates are coated with rabbit anti-human CRP (DAKO) diluted 1:4000 in carbonate buffer (100 μl/well) for 45 minutes at 37° C. Plates are then washed 5×with CRP washing buffer (50 mM Tris-HCl, 0.3M NaCl, […], pH 8.0) using an automatic plate washer. Plates may be dried, covered and refrigerated until use. Supernatant (100 μl) is removed from each well of the test plates and added to the corresponding well of a precoated ELISA plate.
100 μl HRP-conjugated rabbit anti-human CRP (DAKO) diluted 1:500 (in CRP wash buffer) is added to each well, followed by incubation for 30 minutes at 37° C. Plates are washed 5× with CRP washing buffer using the automatic plate washer. 200 μl of 3,3′,5,5′-Tetramethyl Benzidine (TMB) liquid Substrate System (Sigma, St. Louis, Mo.) is added to each well, followed by incubation in the dark for 15 minutes at room temperature. Finally, 50 μl of 1 M H2SO4 is added to each well and absorbance at 450 nm is immediately measured in a microtiter spectrophotometer.
CRP measured as above is normalized to cell count per well, using a cell viability assay, such as the Cell Tracker Green assay. To do this, the remainder of the medium is from the cell test plates, cells are washed with 200 μl of pre-warmed 1×Hanks Basic Salt Solution (HBSS; GIBCO), and 100 μL of 5 μM Cell Tracker Green (Molecular Probes, Eugene, Oreg.) is added to each well. Plates are then incubated at 37° C. for 30 minutes. Cells are then washed twice with prewarmed 1×HBSS. Plates are immediately read using a Fluoroskan® flourometer with a 485 excitation/538 emission filter pair.

`CC(=O)c1oc2c(C)c(C)c(O)cc2c1Br` [1-(3-Bromo-5-hydroxy-6,7-dimethyl-benzofuran-2-yl)-ethanone] gave an EC50 of 10 to 40 µM.
For `Cc1c(O)cc2cc(C(=O)CN3CCOCC3)oc2c1C` [1-(5-Hydroxy-6,7-dimethyl-benzofuran-2-yl)-2-morpholin-4-yl-ethanone], the EC50 was 10 to 40 µM.
`CC(=O)c1cc2cc(O)c(C)c(C)c2o1` [1-(5-Hydroxy-6,7-dimethyl-benzofuran-2-yl)ethanone] gave an EC50 of 10 to 40 µM.
In the case of `Cc1c(O)cc2cc(C3(O)CN(C)CCO3)oc2c1C` (stereo not shown) [2-(5-Hydroxy-6,7-dimethyl-benzofuran-2-yl)-4-methyl-morpholin-2-ol], the EC50 is reported as 10 to 40 µM.
`COc1ccc(-c2coc3c(C)c(C)c(O)cc23)cc1` [3-(4-Methoxy-phenyl)-6,7-dimethyl-benzofuran-5-ol] gave an EC50 of 10 to 40 µM.
In the case of `Cc1c(C)c2occ(-c3ccccc3)c2c2c(-c3ccccc3)coc12` [4,5-Dimethyl-1,8-diphenyl-benzo[1,2-b;4,3-b′]difuran], the EC50 is reported as 10 to 40 µM.
Compound `Cc1c(O)cc2c(-c3ccccc3)coc2c1C` [6,7-Dimethyl-3-phenyl-benzofuran-5-ol] has an EC50 of 10 to 40 µM.
